This is an account of results in patent publication US8415482B2, “Proline derivatives” (National Health Research Institutes, priority 2009, dated 2013).

The assay relates to HCV replication. The assay is described as follows: Inhibiting HCV replication, Ava5-EG(Δ4AB)SEAP reporter-based cell line, SEAP activity. To be noted: Hepatitis C virus, 72 h, Ava5-EG(Δ4AB)SEAP cells; 48 hours + additional 24 hours treatment; SEAP activity in culture medium; read-out: EC50 values (i.e., the concentration of a test compound at which 50% HCV replication is inhibited). As to the method: The inhibitory activity of compounds of this invention against HCV replication was assessed using Ava5-EG(Δ4AB)SEAP, a reporter-based cell line, according to the methods described in Lee et al., Anal. Biochem., 316:162-70 (2003) and Lee et al., J. Virol Methods, 116:27-33 (2004). Briefly, Ava5-EG(Δ4AB)SEAP cells were cultured in a medium containing 500 μg/mL G418 (geneticin) and 10 μg/mL blasticidin in a 5% CO2 incubator. G418 and blasticidin were purchased from Invitrogen (Carlsbad, Calif.). The cells were seeded in a 96-well plate (5×10^3 cells/100 μL-well) and incubated at 37° C. for 24 hours. They were then treated with a solution of a test compound in DMSO at various concentrations. After 48 hours, the culture medium in each well was replaced with a fresh medium containing the test compound at the same concentrations to remove secreted alkaline phosphatase (SEAP) accumulated in the culture medium, if any. The cells were cultured for additional 24 hours. The culture medium was then collected and tested for SEAP activity using a Phospha-Light assay kit (Tropix, Foster, Calif., USA).

pEC50: −log10 of the molar value.

Turning to `O=C(N[C@@H](C(=O)N1CCC[C@H]1c1nc(-c2ccc(-c3ccc(-c4cnc([C@@H]5CCCN5C(=O)[C@H](NC(=O)C5CC5)c5ccccc5)s4)cc3)cc2)no1)c1ccccc1)C1CC1` [Compound 34a], the pEC50 is not below 6.30.
For the molecule `O=C(N[C@@H](C(=O)N1C[C@H](F)C[C@H]1c1ncc(-c2ccc(-c3ccc(-c4cnc([C@@H]5C[C@@H](F)CN5C(=O)[C@H](NC(=O)N5CCOCC5)c5ccccc5)s4)cc3)cc2)s1)c1ccccc1)N1CCOCC1` [Compound 7b-B], the pEC50 was not below 6.30.
For `O=C(N[C@@H](C(=O)N1C[C@@H](F)C[C@H]1c1ncc(-c2ccc(-c3ccc(-c4cnc([C@@H]5C[C@H](F)CN5C(=O)[C@H](NC(=O)C5CC5)c5ccccc5)s4)cc3)cc2)s1)c1ccccc1)C1CC1` [Compound 7c-A], the pEC50 was not below 6.30.
Under `CC(=O)N[C@H](C(=O)N1CCC[C@H]1c1ncc(-c2ccc(-c3ccc(-c4cnc([C@@H]5CCCN5C(=O)[C@H](NC(C)=O)c5ccccc5)s4)cc3)cc2)s1)c1ccccc1` [Compound 51a] stands not below 6.30.
Under `O=C(N[C@@H](C(=O)N1CCC[C@H]1c1nc(-c2ccc(-c3ccc(-c4cnc([C@@H]5CCCN5C(=O)[C@H](NC(=O)C5CC5)c5ccccc5)s4)cc3)cc2)cs1)c1ccccc1)C1CC1` [Compound 46a] stands not below 6.30; under `O=C(N[C@@H](C(=O)N1C[C@@H](F)C[C@H]1c1ncc(-c2ccc(-c3ccc(-c4cnc([C@@H]5C[C@H](F)CN5C(=O)[C@H](NC(=O)N5CCOCC5)c5ccccc5)s4)cc3)cc2)s1)c1ccccc1)N1CCOCC1` [Compound 7c-B], not below 6.30; under `O=C(N[C@@H](C(=O)N1CCC[C@H]1c1ncc(-c2ccc(-c3ccc(-c4cnc([C@@H]5CCCN5C(=O)[C@H](NC(=O)N5CCOCC5)c5ccccc5)s4)cc3)cc2)s1)c1ccccc1)N1CCOCC1` [Compound 7a-B], not below 6.30.
As for `O=C(N[C@@H](C(=O)N1CCC[C@H]1c1ncc(-c2ccc(-c3ccc(-c4csc([C@@H]5CCCN5C(=O)[C@H](NC(=O)C5CC5)c5ccccc5)n4)cc3)cc2)[nH]1)c1ccccc1)C1CC1` [Compound 38a], the pEC50 is not below 6.30.
Under `CC(C)(C)OC(=O)N[C@@H](C(=O)N1CCC[C@H]1c1ncc(-c2ccc(-c3ccc(-c4cnc([C@@H]5CCCN5C(=O)[C@H](NC(=O)OC(C)(C)C)c5ccccc5)s4)cc3)cc2)s1)c1ccccc1` [Compound 6a, di-tert-butyl (1R,1′R)-2,2′-((2S,2′S)-2,2′-(5,5′-(biphenyl-4,4′-diyl)bis(thiazole-5,2-diyl))bis(pyrro-lidine-2,1-diyl))bis(2-oxo-1-phenylethane-2,1-diyl)dicarbamate] stands not below 6.30; under `O=C(N[C@@H](C(=O)N1CCC[C@H]1c1nc(-c2ccc(-c3ccc(-c4noc([C@@H]5CCCN5C(=O)[C@H](NC(=O)C5CC5)c5ccccc5)n4)cc3)cc2)c[nH]1)c1ccccc1)C1CC1` [Compound 26a], not below 6.30; under `CC(C)(C)OC(=O)N[C@@H](C(=O)N1CCC[C@H]1c1nc(-c2ccc(-c3ccc(-c4csc([C@@H]5CCCN5C(=O)[C@H](NC(=O)OC(C)(C)C)c5ccccc5)n4)cc3)cc2)no1)c1ccccc1` [Compound 29a], not below 6.30.
Then `O=C(N[C@H](C(=O)N1CCC[C@H]1c1ncc(-c2ccc(-c3ccc(-c4cnc([C@@H]5CCCN5C(=O)[C@H](NC(=O)C5CCC5)c5ccccc5)s4)cc3)cc2)s1)c1ccccc1)C1CCC1` [Compound 67a], with not below 6.30; and `O=C(Cc1ccccc1)N[C@@H](C(=O)N1CCC[C@H]1c1ncc(-c2ccc(-c3ccc(-c4cnc([C@@H]5CCCN5C(=O)[C@H](NC(=O)Cc5ccccc5)c5ccccc5)s4)cc3)cc2)s1)c1ccccc1` [Compound 74a], with not below 6.30.
For `O=C(N[C@@H](C(=O)N1CCC[C@H]1c1ncc(-c2ccc(-c3ccc(-c4cnc([C@@H]5CCCN5C(=O)[C@H](NC(=O)c5ccco5)c5ccccc5)s4)cc3)cc2)s1)c1ccccc1)c1ccco1` [Compound 76a], the pEC50 was not below 6.30.
Turning to `CC(C)(C)OC(=O)N[C@@H](C(=O)N1CCC[C@H]1c1nc(-c2ccc(-c3ccc(-c4cnc([C@@H]5CCCN5C(=O)[C@H](NC(=O)OC(C)(C)C)c5ccccc5)s4)cc3)cc2)cs1)c1ccccc1` [Compound 45a], the pEC50 was not below 6.30.
Then `CC(C)(C)OC(=O)N[C@@H](C(=O)N1CCC[C@H]1c1nc(-c2ccc(-c3ccc(-c4noc([C@@H]5CCCN5C(=O)[C@H](NC(=O)OC(C)(C)C)c5ccccc5)n4)cc3)cc2)c[nH]1)c1ccccc1` [Compound 25a], with not below 6.30; and `O=C(N[C@@H](C(=O)N1CCC[C@H]1c1ncc(-c2ccc(-c3ccc(-c4cnc([C@@H]5CCCN5C(=O)[C@H](NC(=O)C5CC5)c5ccccc5)s4)cc3)cc2)[nH]1)c1ccccc1)C1CC1` [Compound 42a, N—((R)-2-((S)-2-(5-(4′-(2-((S)-1-((R)-2-(cyclopropanecarboxamido)-2-phenylacetyl)pyrrolidin-2-yl)-1H-imidazol-4-yl)biphenyl-4-yl)thiazol-2-yl)pyrrolidin-1-yl)-2-oxo-1-phenyl-ethyl)cyclopropanecarboxamide], with not below 6.30.
`O=C(N[C@@H](C(=O)N1CCC[C@H]1c1ncc(-c2ccc(-c3ccc(-c4cnc([C@@H]5CCCN5C(=O)[C@H](NC(=O)c5ccncc5)c5ccccc5)s4)cc3)cc2)s1)c1ccccc1)c1ccncc1` [Compound 84a]: the pEC50 is not below 6.30.
With `CC(C)(C)OC(=O)N[C@@H](C(=O)N1CCC[C@H]1c1ncc(-c2ccc(-c3ccc(-c4cnc([C@@H]5CCCN5C(=O)[C@H](NC(=O)OC(C)(C)C)c5ccccc5)s4)cc3)cc2)[nH]1)c1ccccc1` [Compound 41a], the pEC50 is not below 6.30.
On to `O=C(N[C@@H](C(=O)N1CCC[C@H]1c1nc(-c2ccc(-c3ccc(-c4csc([C@@H]5CCCN5C(=O)[C@H](NC(=O)C5CC5)c5ccccc5)n4)cc3)cc2)no1)c1ccccc1)C1CC1` [Compound 30a], for which the pEC50 was not below 6.30.
For the molecule `CCCCCC(=O)N[C@@H](C(=O)N1CCC[C@H]1c1ncc(-c2ccc(-c3ccc(-c4cnc([C@@H]5CCCN5C(=O)[C@H](NC(=O)CCCCC)c5ccccc5)s4)cc3)cc2)s1)c1ccccc1` [Compound 58a], the pEC50 is not below 6.30.
As for `O=C(N[C@@H](C(=O)N1CCC[C@H]1c1ncc(-c2ccc(-c3ccc(-c4cnc([C@@H]5CCCN5C(=O)[C@H](NC(=O)C5CCCCC5)c5ccccc5)s4)cc3)cc2)s1)c1ccccc1)C1CCCCC1` [Compound 70a], the pEC50 was not below 6.30.
Turning to `CC(C)C(=O)N[C@H](C(=O)N1CCC[C@H]1c1ncc(-c2ccc(-c3ccc(-c4cnc([C@@H]5CCCN5C(=O)[C@H](NC(=O)C(C)C)c5ccccc5)s4)cc3)cc2)s1)c1ccccc1` [Compound 61a], the pEC50 is not below 6.30.
Turning to `O=C(N[C@@H](C(=O)N1C[C@H](F)C[C@H]1c1ncc(-c2ccc(-c3ccc(-c4cnc([C@@H]5C[C@@H](F)CN5C(=O)[C@H](NC(=O)C5CC5)c5ccccc5)s4)cc3)cc2)s1)c1ccccc1)C1CC1` [Compound 7b-A], the pEC50 is not below 6.30.
As to `CC(C)(C)OC(=O)N[C@@H](C(=O)N1CCC[C@H]1c1ncc(-c2ccc(-c3ccc(-c4csc([C@@H]5CCCN5C(=O)[C@H](NC(=O)OC(C)(C)C)c5ccccc5)n4)cc3)cc2)[nH]1)c1ccccc1` [Compound 37a], the pEC50 was not below 6.30.
Take `O=C(N[C@@H](C(=O)N1CCC[C@H]1c1ncc(-c2ccc(-c3ccc(-c4cnc([C@@H]5CCCN5C(=O)[C@H](NC(=O)C5CC5)c5ccccc5)s4)cc3)cc2)s1)c1ccccc1)C1CC1` [Compound 7a-A, N,N′-(1R,1′R)-2,2′-((2S,2′S)-2,2′-(5,5′-(biphenyl-4,4′-diyl)bis(thiazole-5,2-diyl))bis(pyrrolidine-2,1-diyl))bis(2-oxo-1-phenylethane-2,1-diyl)dicyclopropanecarboxamide]: the pEC50 was not below 6.30.
`CC(C)(C)OC(=O)N[C@@H](C(=O)N1CCC[C@H]1c1nc(-c2ccc(-c3ccc(-c4cnc([C@@H]5CCCN5C(=O)[C@H](NC(=O)OC(C)(C)C)c5ccccc5)s4)cc3)cc2)no1)c1ccccc1` [Compound 33a]: the pEC50 was not below 6.30.
